Experimental data published in patent US20120244089A1, “USE OF THIAZOLE COMPOUND IN FLAVOR APPLICATIONS” (priority 2009, published 2012).
Entries after “also recorded” stand apart in the source; their conditions may differ.

Legend:
[1] = Flavor evaluation in a soft drink sample (orange soda); conditions: 5 ppb
Method: The flavor properties of 2-ethyl-4-methyl-2,5-dihydro-thiazole were evaluated in a soft drink sample. An orange soda was used whose ingredients included carbonated water, high fructose corn syrup, citric acid, potassium benzoate, gum acacia, natural flavor, ester gum, yellow 6, brominated vegetable oil, and red 40.

[2] = Flavor evaluation in a beef broth sample; conditions: 4 ppb
Method: The flavor properties of 2-ethyl-4-methyl-2,5-dihydro-thiazole were evaluated in a beef broth sample. The beef broth sample included beef broth and less than 1% of the following: salt, MSG, hydrolyzed corn protein, hydrolyzed soy protein, hydrolyzed wheat protein, dextrose, onion powder, autolyzed yeast extract, caramel color, partially hydrogenated soybean oil, natural flavor, thiamine hydrochloride, disodium inosinate, and disodium guanylate.

[3] = Flavor evaluation in an oatmeal sample; conditions: plain instant oatmeal
Method: The flavor properties of 2-ethyl-4-methyl-2,5-dihydro-thiazole were evaluated in an oatmeal sample. Commercially available plain instant oatmeal was used whose ingredients included whole grain rolled oats, calcium carbonate, salt, guar gum, caramel color, reduced iron, niacinamide, vitamin A, palmitate, pyridoxine, hydrochloride, riboflavin, thiamin mononitrate, and folic acid.

[4] = Flavor description in water; conditions: 1 ppb
[5] = Flavor evaluation in a dairy product sample (mixed berry yogurt); conditions: 5 ppb
Method: The flavor properties of 2-ethyl-4-methyl-2,5-dihydro-thiazole were evaluated in a dairy product sample. A mixed berry yogurt sample was used whose ingredients included cultured pasteurized grade A nonfat milk, high fructose corn syrup, modified corn starch, nonfat milk, kosher gelatin, corn starch, tricalcium phosphate, natural flavor, potassium sorbate added to maintain freshness, sucralose (splenda brand,) acesulfame potassium, colored with annatto extract, vitamin A acetate, and vitamin D3.

[6] = Flavor evaluation in water by a trained sensory panel, 9-point hedonic scale; conditions: for Flavor Intensity: 9-point hedonic scale
Method: The flavor properties of 2-ethyl-4-methyl-2,5-dihydro-thiazole (Formula I), 4-ethyl-2-methyl-3-thiazole (Formula II), and 4-methyl-2-propyl-2,5-dihydro-thiazole (Formula III) in water were evaluated by a trained sensory panel using the 9-point hedonic scale.

CCC1N=C(C)CS1 (stereo not shown) [Formula I, 2-ethyl-4-methyl-2,5-dihydro-thiazole]
Flavor effect [1]: provided the feel of a tangerine soda and more natural taste and having cut the acidity | Flavor effect [2]: boosted the roast note and imparted additional tropical note | Flavor effect ([3]; 1 ppb): added faint sulfurous note and synergized with grain note | Flavor effect ([3]; 5 ppb): sulfurous and peach notes | Flavor notes [4]: tropical fruit, catty, peach, and berry flavor notes | Flavor effect [5]: boosted the fruity note and imparted a peach note | Flavor Profile ([6]; 100 ppb): Tropical, fruit, peach,; also recorded: slightly catty, and meaty; also recorded: Very strong | Flavor Intensity ([6]; 100 ppb): 7.11 | Flavor character, comparison with analogs ([6]; summary of the panel results): unexpected strong and long-lasting fruity character; also recorded: superior to all other structurally closely related analogs

CCC1=NC(C)SC1 (stereo not shown) [Formula II, 4-Ethyl-2-methyl-2,5-dihydro-thiazole]
Flavor Profile ([6]; 1 ppm): Nutty and cabbage | Flavor Intensity ([6]; 1 ppm): 1

CCCC1N=C(C)CS1 (stereo not shown) [Formula III, 4-Methyl-2-propyl-2,5-dihydro-thiazole]
Flavor Profile ([6]; 350 ppb): Sulfury, nutty, and skunk; also recorded: Strong | Flavor Intensity ([6]; 350 ppb): 3.33
